Experimental data: US20250059180A1 (DONG WHA PHARM. CO., LTD., priority 2022, published 2025)

Key:
EZH1 = EZH1 (Homo sapiens, UniProt Q92800); assay: AlphaLISA evaluation of inhibitory activity against EZH1; format: biochemical; conditions: test material 10 nM; DMSO control
Method: (§1) In order to confirm the EZH1 and/or EZH2 activity inhibitory effect of the 1,3-benzodioxole derivative compounds represented by chemical formula I of the present invention, the activity was measured using an AlphaLISA test method.
(§2) The test material dissolved in dimethylsulfoxide (DMSO) was diluted in a test solution (20 mM Tris pH 8.0, 0.1% BSA, 0.01% Triton X-100, 0.5 mM DTT) according to a final treatment concentration (5 nM or 10 nM), mixed with EZH1 and EZH2, respectively, and then added with histone H3 peptide and S-adenosylmethionine (SAM) to initiate an enzyme reaction. An acceptor bead was added thereto after reaction for two hours and subjected to an additional reaction for one hour, after which a donor bead was added thereto. After an additional reaction for 30 minutes, the reaction was completed. Activity was measured using the Magellan program on a Spark10M instrument. DMSO was used as a control group, an inhibition rate of enzyme activity was calculated using the following equation, and the results thereof are shown in Table 1 below.
(§3) Activity inhibition rate (%)=(1−(Group treated with test material/Control group))*100

EZH2 = EZH2 (Homo sapiens, UniProt Q15910); assay: AlphaLISA evaluation of inhibitory activity against EZH2; format: biochemical; conditions: DMSO control
Method: as §1, §2, §3

[1] = tested on: Pfeiffer cells, lymphoma cells having EZH2 mutation (A677G); assay: Proliferation inhibition of cells of hematologic malignancies (CCK-8, 11 days); format: cell-based; conditions: Homo sapiens, Pfeiffer, 264 h, 11 days culture, read-out: Cell proliferation inhibitory effect (IC50)
How it was run: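 Pfeiffer lymphoma cells (EZH2 A677G) in RPMI1640 with 10% FBS were seeded at 10,000 cells/well and exposed to test material for 11 days, with compound replaced every 3–4 days. Viability was read by CCK-8 absorbance at 450 nm, and IC50 was derived by non-linear regression curve fitting.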

Chain of EZH2 (Q15910 whole entry): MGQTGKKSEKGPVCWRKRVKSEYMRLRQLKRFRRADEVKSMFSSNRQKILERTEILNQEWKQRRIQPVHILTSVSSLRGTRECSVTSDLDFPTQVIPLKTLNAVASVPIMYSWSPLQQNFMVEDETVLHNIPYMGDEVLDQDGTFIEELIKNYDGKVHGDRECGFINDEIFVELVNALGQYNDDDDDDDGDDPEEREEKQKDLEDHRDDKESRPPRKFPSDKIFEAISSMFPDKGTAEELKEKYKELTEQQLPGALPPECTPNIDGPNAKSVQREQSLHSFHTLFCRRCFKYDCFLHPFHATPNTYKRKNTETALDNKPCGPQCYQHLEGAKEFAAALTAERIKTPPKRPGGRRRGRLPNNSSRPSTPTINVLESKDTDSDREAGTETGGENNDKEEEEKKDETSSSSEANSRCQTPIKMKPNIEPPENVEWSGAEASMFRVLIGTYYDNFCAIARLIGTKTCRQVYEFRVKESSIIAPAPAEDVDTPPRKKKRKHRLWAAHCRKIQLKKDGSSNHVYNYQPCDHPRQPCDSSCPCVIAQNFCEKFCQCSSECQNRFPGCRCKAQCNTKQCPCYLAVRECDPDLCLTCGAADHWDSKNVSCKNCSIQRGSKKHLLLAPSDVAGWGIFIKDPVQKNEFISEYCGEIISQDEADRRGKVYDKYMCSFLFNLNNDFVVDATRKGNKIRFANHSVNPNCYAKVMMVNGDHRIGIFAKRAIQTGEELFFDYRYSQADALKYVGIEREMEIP
Chain of EZH2 (O75530 whole entry partner): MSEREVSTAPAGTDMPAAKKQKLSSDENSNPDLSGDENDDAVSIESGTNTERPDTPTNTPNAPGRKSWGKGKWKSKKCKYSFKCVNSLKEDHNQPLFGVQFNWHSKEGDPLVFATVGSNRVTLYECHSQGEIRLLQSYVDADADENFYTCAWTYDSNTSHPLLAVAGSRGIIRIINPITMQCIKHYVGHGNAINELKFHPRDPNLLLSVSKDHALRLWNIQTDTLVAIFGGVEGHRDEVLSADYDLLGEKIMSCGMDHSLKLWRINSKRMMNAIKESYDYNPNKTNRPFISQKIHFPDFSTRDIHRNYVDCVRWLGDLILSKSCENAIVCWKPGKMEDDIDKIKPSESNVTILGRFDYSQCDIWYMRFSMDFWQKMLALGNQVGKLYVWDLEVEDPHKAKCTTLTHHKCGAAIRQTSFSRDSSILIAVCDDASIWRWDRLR
Chain of EZH2 (Q15022 whole entry partner): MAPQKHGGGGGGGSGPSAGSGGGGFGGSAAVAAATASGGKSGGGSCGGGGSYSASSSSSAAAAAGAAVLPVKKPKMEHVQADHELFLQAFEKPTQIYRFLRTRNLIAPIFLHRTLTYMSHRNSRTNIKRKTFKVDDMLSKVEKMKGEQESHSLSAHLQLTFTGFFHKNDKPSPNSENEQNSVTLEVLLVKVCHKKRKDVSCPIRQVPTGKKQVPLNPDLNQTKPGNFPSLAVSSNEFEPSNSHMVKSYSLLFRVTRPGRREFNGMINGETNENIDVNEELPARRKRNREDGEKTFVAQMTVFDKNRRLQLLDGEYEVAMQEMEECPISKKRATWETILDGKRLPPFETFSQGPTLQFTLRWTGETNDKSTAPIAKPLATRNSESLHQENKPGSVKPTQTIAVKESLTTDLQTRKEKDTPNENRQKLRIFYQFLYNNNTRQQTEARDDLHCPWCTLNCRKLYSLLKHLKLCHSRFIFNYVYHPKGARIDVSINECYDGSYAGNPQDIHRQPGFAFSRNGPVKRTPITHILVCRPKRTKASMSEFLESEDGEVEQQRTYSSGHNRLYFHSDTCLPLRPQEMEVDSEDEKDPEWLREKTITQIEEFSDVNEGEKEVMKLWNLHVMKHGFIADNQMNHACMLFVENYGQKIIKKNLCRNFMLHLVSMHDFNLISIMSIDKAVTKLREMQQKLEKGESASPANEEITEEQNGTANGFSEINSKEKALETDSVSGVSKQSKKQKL
Chain of EZH1 (Q92800 whole entry): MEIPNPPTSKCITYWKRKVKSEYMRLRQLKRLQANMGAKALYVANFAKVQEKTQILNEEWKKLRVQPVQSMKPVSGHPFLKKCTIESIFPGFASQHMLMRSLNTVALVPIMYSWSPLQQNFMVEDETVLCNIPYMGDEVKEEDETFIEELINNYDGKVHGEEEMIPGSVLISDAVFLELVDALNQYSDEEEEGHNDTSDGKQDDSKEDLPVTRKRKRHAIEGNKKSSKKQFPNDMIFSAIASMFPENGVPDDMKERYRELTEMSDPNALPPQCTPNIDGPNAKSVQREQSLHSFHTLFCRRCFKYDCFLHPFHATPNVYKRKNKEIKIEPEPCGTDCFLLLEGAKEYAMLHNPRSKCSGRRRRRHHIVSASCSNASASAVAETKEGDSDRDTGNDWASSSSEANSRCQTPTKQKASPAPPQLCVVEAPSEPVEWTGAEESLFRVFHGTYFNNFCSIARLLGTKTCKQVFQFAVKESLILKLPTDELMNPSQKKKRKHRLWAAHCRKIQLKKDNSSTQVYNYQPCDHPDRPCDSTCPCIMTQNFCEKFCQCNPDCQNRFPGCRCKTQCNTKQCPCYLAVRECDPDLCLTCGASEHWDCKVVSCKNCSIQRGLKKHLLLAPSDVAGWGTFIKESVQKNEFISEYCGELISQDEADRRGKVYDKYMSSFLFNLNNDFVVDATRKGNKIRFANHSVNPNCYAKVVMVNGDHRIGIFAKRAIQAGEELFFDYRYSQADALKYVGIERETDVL
Chain of EZH1 (O75530 whole entry partner): as the sequence (O75530 whole entry partner) above
Chain of EZH1 (Q15022 whole entry partner): as the sequence (Q15022 whole entry partner) above

In the case of `CSc1cc(C)[nH]c(=O)c1CNC(=O)c1cc(-c2ccc(N3C[C@@H](C)O[C@@H](C)C3)nc2)c2c(c1C)OC(C)([C@H]1CC[C@H](N3CC(OCCCC(F)(F)F)C3)CC1)O2` (stereo partly shown) [Compound 104], the “Enzyme inhibition % EZH1 10 nM” value (EZH1) is reported as 19.9%, the “Enzyme inhibition % EZH2 5 nM” value (EZH2; test material 5 nM) is reported as 37.0% and the “Enzyme inhibition % EZH2 10 nM” value (EZH2; test material 10 nM) is reported as 82.6%. It also gave an IC50 [1] of at most 10 nM.
